Results from patent publication US20220089575A1, “FARNESOID X RECEPTOR AGONISTS AND USES THEREOF” (Metacrine, Inc., priority 2017, published 2022).
pEC50: −log10 of the molar value.

target: T1, hFXR (Homo sapiens, UniProt Q96RI1); test: In Vitro FXR Assay (TK): TK-ECRE-luc reporter in transfected CV-1 cells; format: cell-based; details: 18 hrs, luminescence, maximum efficacy of <25% of the Fexarmine control classified as '+'
T1 construct: expressed in transfected cells; host or cells: CV-1 cells
T1 sequence (Q96RI1 1-486): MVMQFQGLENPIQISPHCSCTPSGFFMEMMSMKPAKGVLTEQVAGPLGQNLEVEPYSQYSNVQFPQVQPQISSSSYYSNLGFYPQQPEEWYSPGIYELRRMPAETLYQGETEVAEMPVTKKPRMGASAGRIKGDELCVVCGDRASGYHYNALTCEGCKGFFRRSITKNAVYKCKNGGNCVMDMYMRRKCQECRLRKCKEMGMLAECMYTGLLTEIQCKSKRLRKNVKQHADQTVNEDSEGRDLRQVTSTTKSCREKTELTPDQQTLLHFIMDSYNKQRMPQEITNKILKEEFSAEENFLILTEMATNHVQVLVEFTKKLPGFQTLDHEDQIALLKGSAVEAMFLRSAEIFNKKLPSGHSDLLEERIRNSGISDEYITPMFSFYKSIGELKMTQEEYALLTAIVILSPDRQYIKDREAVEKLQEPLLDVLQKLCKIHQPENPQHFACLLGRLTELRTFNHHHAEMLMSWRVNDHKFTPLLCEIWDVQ
T1 sequence (P19793 1-462 partner): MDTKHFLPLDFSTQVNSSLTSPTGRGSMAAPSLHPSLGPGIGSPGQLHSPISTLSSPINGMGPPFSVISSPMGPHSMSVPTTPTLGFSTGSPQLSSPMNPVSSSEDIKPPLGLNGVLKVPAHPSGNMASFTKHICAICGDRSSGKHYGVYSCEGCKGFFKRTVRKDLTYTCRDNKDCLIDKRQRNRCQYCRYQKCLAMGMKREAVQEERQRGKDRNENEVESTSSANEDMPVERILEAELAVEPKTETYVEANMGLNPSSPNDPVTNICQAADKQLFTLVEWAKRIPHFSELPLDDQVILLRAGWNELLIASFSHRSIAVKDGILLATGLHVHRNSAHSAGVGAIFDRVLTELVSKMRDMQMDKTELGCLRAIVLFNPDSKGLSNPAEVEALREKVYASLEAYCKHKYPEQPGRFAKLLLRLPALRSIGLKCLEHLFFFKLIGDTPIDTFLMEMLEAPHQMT
How it was run: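 Reporter transactivation by hFXR was measured in CV-1 cells carrying hRXR and a TK-ECRE-luc construct, with compound treatment for 18 h before lysis and luminescence detection.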

pEC50	SMILES
≤ 6.00	COc1ccc([C@H]2CC[C@H](CN(c3cccc(-c4cnn(C(C)C)c4)c3)C(=O)[C@H]3CC[C@H](NCC(=O)O)CC3)CC2)cc1C [Compound 29, 2-((trans-4-((3-(1-Isopropyl-1H-pyrazol-4-yl)phenyl)((trans-4-(4-methoxy-3-methylphenyl)cyclohexyl)methyl)carbamoyl)cyclohexyl)amino)acetic Acid]
≥ 6.60	CN(C)c1ccc(C23CCC(CN(c4cccc(-c5cnc(C6CC6)s5)c4)C(=O)[C@H]4CC[C@H](OC(=O)NCCO)CC4)(CC2)CC3)cn1 [Compound 4.03, 4-((3-(2-Cyclopropylthiazol-5-yl)phenyl)((4-(6-(dimethylamino)pyridin-3-yl)bicyclo[2.2.2]octan-1-yl)methyl)carbamoyl)cyclohexyl (2-hydroxyethyl)trans-carbamate]
≥ 6.60	COc1ccc([C@H]2CC[C@H](CN(c3cc(-c4coc(C(C)C)n4)ccn3)C(=O)[C@H]3CC[C@H](OC(=O)N4CC(S(C)(=O)=O)C4)CC3)CC2)nc1C [Compound 6.75, trans-4-((4-(2-Isopropyloxazol-4-yl)pyridine-2-yl)((trans-4-(5-methoxy-6-methylpyridin-2-yl)cyclohexyl)methyl)carbamoyl)cyclohexyl 3-(methylsulfonyl)azetidine-1-carboxylate]
≥ 6.60	COc1ccc([C@H]2CC[C@H](CN(c3cc(-c4cnn(C(C)C)c4)ccn3)C(=O)[C@H]3CC[C@H](OC(=O)N4CC(OC)C4)CC3)CC2)cc1C#N [Compound 7.48, trans-4-(((trans-4-(3-Cyano-4-methoxyphenyl)cyclohexyl)methyl)(4-(1-isopropyl-1H-pyrazol-4-yl)pyridin-2-yl)carbamoyl)cyclohexyl 3-methoxyazetidine-1-carboxylate]
≥ 6.60	COc1ccc([C@H]2CC[C@H](CN(c3cc(-c4cnn(C(C)C)c4)ccn3)C(=O)[C@H]3CC[C@H](CC(=O)O)CC3)CC2)cc1C#N [Compound 17.26, 2-(trans-4-(((trans-4-(3-Cyano-4-methoxyphenyl)cyclohexyl)methyl)(4-(1-isopropyl-1H-pyrazol-4-yl)pyridin-2-yl)carbamoyl)cyclohexyl)acetic acid]
≥ 6.60	COc1ncc(-c2cccc(N(C[C@H]3CC[C@H](c4ccc(OC)c(C)c4)CC3)C(=O)[C@H]3CC[C@H](CNS(C)(=O)=O)CC3)c2)s1 [Compound 25.08, trans-N-((trans-4-(4-Methoxy-3-methylphenyl)cyclohexyl)methyl)-N-(3-(2-methoxythiazol-5-yl)phenyl)-4-(methylsulfonamidomethyl) cyclohexanecarboxamide]
≥ 6.60	COc1ccc(C23CCC(CN(c4cc(-c5coc(C6CC6)n5)ccn4)C(=O)[C@H]4CC[C@H](C(=O)O)CC4)(CC2)CC3)cc1C [Compound 18.03, trans-4-((4-(2-Cyclopropyloxazol-4-yl)pyridin-2-yl)((4-(4-methoxy-3-methylphenyl)bicyclo[2.2.2]octan-1-yl)methyl)carbamoyl) cyclohexanecarboxylic acid]
≥ 6.60	COc1ccc([C@H]2CC[C@H](CN(c3cccc(-c4cnn(C5CC5)c4)c3)C(=O)[C@H]3CC[C@H](OC(=O)NCCO)CC3)CC2)cc1C [Compound 4, trans-4-((3-(1-Cyclopropyl-1H-pyrazol-4-yl)phenyl)((trans-4-(4-methoxy-3-methylphenyl)cyclohexyl)methyl)carbamoyl)cyclohexyl (2-hydroxyethyl)carbamate]
≥ 6.60	COc1ccc([C@H]2CC[C@H](CN(c3cc(-c4cnn(C(C)C)c4)ccn3)C(=O)[C@H]3CC[C@H](OC(=O)N4CC(OC(C)C)C4)CC3)CC2)nc1C [Compound 7.56, trans-4-((4-(1-Isopropyl-1H-pyrazol-4-yl)pyridin-2-yl)((trans-4-(5-methoxy-6-methylpyridin-2-yl)cyclohexyl)methyl)carbamoyl)cyclohexyl 3-isopropoxyazetidine-1-carboxylate]
≥ 6.60	COc1ncc(-c2cccc(N(C[C@H]3CC[C@H](c4ccc(OC)c(C)c4)CC3)C(=O)[C@H]3CC[C@H](OCCCO)CC3)c2)s1 [Compound 13.04, trans-4-(3-Hydroxypropoxy)-N-((trans-4-(4-methoxy-3-methylphenyl)cyclohexyl)methyl)-N-(3-(2-methoxythiazol-5-yl)phenyl) cyclohexanecarboxamide]
≥ 6.60	CNC(=O)O[C@H]1CC[C@H](C(=O)N(C[C@H]2CC[C@H](c3ccc(OC)c(C)c3)CC2)c2cc(-c3cnn(C4CC4)c3)ccn2)CC1 [Compound 3.04, trans-4-((4-(1-Cyclopropyl-1H-pyrazol-4-yl)pyridin-2-yl)((trans-4-(4-methoxy-3-methylphenyl)cyclohexyl)methyl)carbamoyl)cyclohexyl methylcarbamate]
≥ 6.60	COC(=O)C1CN(C(=O)O[C@H]2CC[C@H](C(=O)N(C[C@H]3CC[C@H](c4ccc(OC)c(C)c4)CC3)c3cccc(-c4cnn(C5CC5)c4)c3)CC2)C1 [Compound 7.34, 1-(trans-4-((3-(1-Cyclopropyl-1H-pyrazol-4-yl)phenyl)((trans-4-(4-methoxy-3-methylphenyl)cyclohexyl)methyl)carbamoyl)cyclohexyl) 3-methylazetidine-1,3-dicarboxylate]
≥ 6.60	CCCOC(=O)[C@H]1CC[C@H](C(=O)N(C[C@H]2CC[C@H](c3ccc(OC)c(C)c3)CC2)c2cccc(-c3cnn(C4CC4)c3)c2)CC1 [Compound 22, trans-Propyl 4-((3-(1-cyclopropyl-1H-pyrazol-4-yl)phenyl)((trans-4-(4-methoxy-3-methylphenyl)cyclohexyl)methyl)carbamoyl)cyclohexanecarboxylate]
≥ 6.60	COc1ccc([C@H]2CC[C@H](CN(c3cccc(-c4cnn(C(C)C)c4)c3)C(=O)[C@H]3CC[C@H](NC(C)=O)CC3)CC2)cc1C [Compound 26.10, trans-4-Acetamido-N-(3-(1-isopropyl-1H-pyrazol-4-yl)phenyl)-N-((trans-4-(4-methoxy-3-methylphenyl)cyclohexyl)methyl) cyclohexanecarboxamide]
≥ 6.60	COc1ccc([C@H]2CC[C@H](CN(c3cccc(-c4cnc(C5CC5)s4)c3)C(=O)[C@H]3CC[C@H](NC(=O)COC(C)=O)CC3)CC2)cc1C [Compound 25.13, 2-((trans-4-((3-(2-Cyclopropylthiazol-5-yl)phenyl)((trans-4-(4-methoxy-3-methylphenyl)cyclohexyl)methyl)carbamoyl)cyclohexyl)amino)-2-oxoethyl acetate]
≤ 6.00	COc1ccc([C@H]2CC[C@H](CN(c3cccc(-c4cnc(C5CC5)s4)c3)C(=O)[C@H]3CC[C@H](NC(=O)C4CN(C)C4)CC3)CC2)cc1C [Compound 27.05, N-(trans-4-((3-(2-Cyclopropylthiazol-5-yl)phenyl)((trans-4-(4-methoxy-3-methylphenyl)cyclohexyl)methyl)carbamoyl)cyclohexyl)-1-methylazetidine-3-carboxamide]
≥ 6.60	COc1ccc([C@H]2CC[C@H](CN(c3cccc(-c4cnc(C5CC5)s4)c3)C(=O)[C@H]3CC[C@H](NC(C)=O)CC3)CC2)cc1C [Compound 25.09, trans-4-Acetamido-N-(3-(2-cyclopropylthiazol-5-yl)phenyl)-N-((trans-4-(4-methoxy-3-methylphenyl)cyclohexyl)methyl) cyclohexanecarboxamide]
≥ 6.60	CNC(=O)O[C@]1(C)CC[C@H](C(=O)N(C[C@H]2CC[C@H](c3ccc(OC)c(C)c3)CC2)c2cccc(-c3cnn(C(C)C)c3)c2)CC1 [Compound 5.53, cis-4-((3-(1-Isopropyl-1H-pyrazol-4-yl)phenyl)(trans-4-(4-methoxy-3-methylphenyl)cyclohexyl)methyl)carbamoyl)-1-methylcyclohexyl methylcarbamate]
≥ 6.60	COc1ccc([C@H]2CC[C@H](CN(c3cc(-c4coc(C5CC5)n4)ccn3)C(=O)[C@H]3CC[C@H](OC(=O)N4CC(OCCO)C4)CC3)CC2)nc1C [Compound 6.76, trans-4-((4-(2-Cyclopropyloxazol-4-yl)pyridine-2-yl)((trans-4-(5-methoxy-6-methylpyridin-2-yl)cyclohexyl)methyl)carbamoyl)cyclohexyl 3-(2-hydroxyethoxy)azetidine-1-carboxylate]
≥ 6.60	CCCC(=O)N[C@H]1CC[C@H](C(=O)N(C[C@H]2CC[C@H](c3ccc(OC)c(C)c3)CC2)c2cccc(-c3cnc(C4CC4)s3)c2)CC1 [Compound 25.16, trans-4-Butyramido-N-(3-(2-cyclopropylthiazol-5-yl)phenyl)-N-((trans-4-(4-methoxy-3-methylphenyl)cyclohexyl)methyl) cyclo hexanecarboxamide]
